Measurements published in ChEMBL document CHEMBL1142450, “3-(Imidazolyl methyl)-3-aza-bicyclo[3.1.0]hexan-6-yl)methyl ethers: a novel series of mGluR2 positive allosteric modulators” (Bioorg Med Chem Lett, 2008).

Assays:
Format in all cases: ADME, organism-based
[1] = Oral bioavailability in Sprague-Dawley rat at 5 mg/kg; conditions: in vivo
[2] = Ratio of drug level in brain to plasma in Sprague-Dawley rat at 10 mg/kg, sc; parameters: dose 10 mg/kg, route subcutaneous; conditions: brain and plasma, read-out: BPR
[3] = Fraction absorbed in Sprague-Dawley rat at 5 mg/kg, po; parameters: dose 5 mg/kg, route oral; conditions: in vivo, read-out: Fabs

## Cn1c(CN2C[C@@H]3C(COc4ccccc4)[C@@H]3C2)nc2ccccc21 (stereo partly drawn)
[1]
  bioavailability: < 2%
[2]
  Kp: 2
[3]
  Fa: 5%

## Cn1c(CN2C[C@@H]3C(COc4cccc(Cl)c4)[C@@H]3C2)nc2ncccc21 (stereo partly drawn)
[1]
  bioavailability: 79%
[3]
  Fa: 84%

## Cn1c(CN2C[C@@H]3C(COc4ccc(Cl)cn4)[C@@H]3C2)nc2ccccc21 (stereo partly drawn)
[1]
  bioavailability: 20%
[3]
  Fa: 72%

## Cn1c(CN2C[C@@H]3C(COc4ccc(C(F)(F)F)cn4)[C@@H]3C2)nc2ccccc21 (stereo partly drawn)
[1]
  bioavailability: 27%
